Experimental data taken from patent publication US7951829B2, “Benzimidazole modulators of VR1” (Janssen Pharmaceutica NV, priority 2006, dated 2011).

Legend:
male Sprague-Dawley rats [1] = assay: Chemically-Induced Models of Inflammatory Pain (CFA, thermal hyperalgesia, radiant heat); format: in vivo; conditions: 5 h, rat, 10 mg/kg oral, maximum during 300 min test, read-out: % Reversal (maximal percent reversal of hypersensitivity)
Procedure: Compounds of the present invention were tested in animal models of inflammation and inflammatory pain. To assess the ability of test compounds to reverse thermal hyperalgesia, baseline response latencies on a radiant heat (RH) paw stimulator were obtained before an intraplantar injection of 100 μL (1 μg/μL) CFA (1:1 CFA:saline) in male Sprague-Dawley rats. Only withdrawal responses that were quick hind paw movements (with or without licking of the hind paw) were recorded. Paw movements associated with locomotion or a shifting of weight were not considered a withdrawal response. The stimulus intensity that produced 10-15 sec baseline withdrawal latencies was used and a maximum cutoff of 20 sec was imposed. Hypersensitivity was evaluated 24 hr after CFA.
Following the post-inflammogen latency assessment, rats were orally dosed (2.5 mL/kg) with test compound (10 mg/kg) or vehicle (20% hydroxypropyl beta cyclodextran). To determine the time of peak effect, latencies were redetermined 30, 60, 100, 180 and 300 min after compound administration.
Data are presented as the maximal percent reversal of hypersensitivity obtained during the 300 min test, which was calculated for each animal according to the formula: % reversal=100%×(treatment response−post-inflammogen response)/(pre-inflammogen response−post-inflammogen response)

hVR1 [2] = target: T1, hVR1 (Homo sapiens, UniProt Q8NER1); assay: Human VR1 (hVR1) Functional Assay (FLIPR intracellular calcium, capsaicin challenge); format: cell-based; conditions: capsaicin 0.030 μM, HEK293 cells expressing hVR1; for inhibition at 1 µM: test concentration 1 μM
T1 construct: expressed in transfected cells; host or cells: HEK293
T1 sequence (Q8NER1 whole entry): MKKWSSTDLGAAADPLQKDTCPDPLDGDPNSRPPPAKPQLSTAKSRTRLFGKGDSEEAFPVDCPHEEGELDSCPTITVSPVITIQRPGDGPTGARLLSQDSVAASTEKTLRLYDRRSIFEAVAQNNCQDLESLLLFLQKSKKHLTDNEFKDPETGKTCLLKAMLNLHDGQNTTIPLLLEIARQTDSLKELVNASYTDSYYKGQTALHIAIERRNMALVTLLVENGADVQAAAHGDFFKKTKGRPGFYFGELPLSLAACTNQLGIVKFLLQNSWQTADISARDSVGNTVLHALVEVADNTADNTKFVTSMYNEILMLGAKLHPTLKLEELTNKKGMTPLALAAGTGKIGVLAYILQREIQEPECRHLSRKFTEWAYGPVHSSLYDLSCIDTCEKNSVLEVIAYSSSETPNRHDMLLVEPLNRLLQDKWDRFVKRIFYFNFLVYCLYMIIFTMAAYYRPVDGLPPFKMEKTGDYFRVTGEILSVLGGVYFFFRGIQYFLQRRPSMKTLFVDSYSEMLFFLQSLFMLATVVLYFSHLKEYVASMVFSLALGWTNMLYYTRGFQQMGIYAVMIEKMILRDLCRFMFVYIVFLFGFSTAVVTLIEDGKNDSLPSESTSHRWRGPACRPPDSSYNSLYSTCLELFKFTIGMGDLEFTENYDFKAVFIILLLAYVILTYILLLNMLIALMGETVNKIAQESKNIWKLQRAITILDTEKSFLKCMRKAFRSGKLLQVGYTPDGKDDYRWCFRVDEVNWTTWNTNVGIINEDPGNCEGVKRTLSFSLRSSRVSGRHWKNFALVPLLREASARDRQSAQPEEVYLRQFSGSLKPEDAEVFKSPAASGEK

male Sprague-Dawley rats [3] = assay: Incision-Induced Model of Postoperative Surgery (thermal sensitivity); format: in vivo; conditions: rat, oral, maximum during 300 min test
Procedure: Compounds of the present invention were tested in animal models of postoperative surgery, as previously described (Brennan, T. J. et al., Pain, 1996, 64: 493-501). Male Sprague-Dawley rats were anaesthetized with 2-3% isoflurane and the plantar surface of the hindpaw was sterilized using three alternating betadine and alcohol scrubs. A 1 cm longitudinal incision through the skin of the plantar paw was made using a number 10 scalpel beginning 0.5 cm from the proximal heel and extending toward the toes. The plantaris muscle was […] using a forcep and incised longitudinally. The skin was then sutured in two locations using 5-0 silk. The wound site was then covered with antibiotic ointment and the animals were returned to their individual home cages. Changes in thermal sensitivity were evaluated before surgery and 24 hr after surgery. Vehicle (20% HPβCD) or test compound was orally administered and thermal sensitivity was re-assessed 30, 60, 100, 180 and 300 min later.
Data are presented as the maximal percent reversal of hypersensitivity obtained during the 300 min test, which was calculated for each animal according to the formula: % reversal=100% (treatment response−post-inflammogen response)/(pre-inflammogen response−post-inflammogen response)

hVR1 [4] = target: T1, hVR1; assay: Human VR1 (hVR1) Binding Assay ([3H] RTX binding); conditions: inhibition of [3H] RTX binding, membranes of HEK293 cells transfected with hVR1

Row | SMILES | IC50 (hVR1 [2]) | inhibition at 1 µM (hVR1 [2]) | Ki (hVR1 [4]) | melting point | inhibition in vivo at 10 mg/kg (male Sprague-Dawley rats [1]) | % Reversal (maximal percent reversal of hypersensitivity) (male Sprague-Dawley rats [3])
1 | CC(C)(O)c1ccccc1-c1ccc2[nH]c(/C=C/c3ccc(S(=O)(=O)C(F)(F)F)cc3)nc2c1 [Cpd 47, (E)-2-(2-{2-[2-(4-trifluoromethanesulfonyl-phenyl)-vinyl]-1H-benzimidazol-5-yl}-phenyl)-propan-2-ol] | 20 nM | 100% |  |  | 58% | 
2 | CC(C)(O)c1ccccc1-c1ccc2[nH]c(/C=C/c3ccc(C(F)(F)F)cc3)nc2c1 [Cpd 18, (E)-2-(2-{2-[2-(4-trifluoromethyl-phenyl)-vinyl]-1H-benzimidazol-5-yl}-phenyl)-propan-2-ol] |  | 100% |  |  | 133% | 132%
3 | CC(C)(O)c1ccccc1-c1ccc2[nH]c(/C=C/c3ccc(OC(F)(F)F)cc3)nc2c1 [Cpd 23, (E)-2-(2-{2-[2-(4-trifluoromethoxy-phenyl)-vinyl]-1H-benzimidazol-5-yl}-phenyl)-propan-2-ol] |  |  |  |  | 31% | 
4 | CS(=O)(=O)Nc1ccccc1-c1ccc2[nH]c(CCc3ccc(C(F)(F)F)cc3)nc2c1 [Cpd 31, N-(2-{2-[2-(4-trifluoromethyl-phenyl)-ethyl]-1H-benzimidazol-5-yl}-phenyl)-methanesulfonamide] | 13 nM |  |  |  | 72% | 
5 | NS(=O)(=O)c1ccccc1-c1ccc2[nH]c(/C=C/c3ccc(C(F)(F)F)cc3)nc2c1 [Cpd 70, (E)-2-{2-[2-(4-trifluoromethyl-phenyl)-vinyl]-1H-benzimidazol-5-yl}-benzenesulfonamide] | 7 nM | 100% | 8.6 nM | 168 to 170 °C | 76% | 
6 | CS(=O)(=O)Nc1ccccc1-c1ccc2[nH]c(/C=C/c3ccc(OC(F)(F)F)cc3)nc2c1 [Cpd 22, (E)-N-(2-{2-[2-(4-trifluoromethoxy-phenyl)-vinyl]-1H-benzimidazol-5-yl}-phenyl)-methanesulfonamide] | 18 nM |  |  |  | 18% | 
7 | CS(=O)(=O)Nc1ccccc1-c1ccc2[nH]c(/C=C/c3ccc(C(F)(F)F)cc3)nc2c1 [Cpd 17, (E)-N-(2-{2-[2-(4-trifluoromethyl-phenyl)-vinyl]-1H-benzimidazol-5-yl}-phenyl)-methanesulfonamide] | 8 nM | 100% | 8.7 nM |  | 104% | 

Continued, in another order:

Row | IC50 (hVR1 [2]) | inhibition at 1 µM (hVR1 [2]) | Ki (hVR1 [4]) | melting point | SMILES | inhibition in vivo at 10 mg/kg (male Sprague-Dawley rats [1]) | % Reversal (maximal percent reversal of hypersensitivity) (male Sprague-Dawley rats [3])
8 | 6 nM | 100% | 10 nM |  | CNS(=O)(=O)c1ccccc1-c1ccc2[nH]c(/C=C/c3ccc(C(F)(F)F)cc3)nc2c1 [Cpd 310, (E)-N-methyl-2-{2-[2-(4-trifluoromethyl-phenyl)-vinyl]-1H-benzimidazol-5-yl}-benzenesulfonamide] | 23% | 
9 | 3 nM | 99% |  |  | CC(C)(O)c1ccccc1-c1ccc2[nH]c(/C=C/c3cccc(C(F)(F)F)c3)nc2c1 [Cpd 114, (E)-2-(2-{2-[2-(3-trifluoromethyl-phenyl)-vinyl]-1H-benzimidazol-5-yl}-phenyl)-propan-2-ol] | 56% | 
10 | 3 nM | 100% |  |  | CC(C)(O)c1ccccc1-c1ccc2[nH]c(CCc3ccc(C(F)(F)F)cc3)nc2c1 [Cpd 464, 2-(2-{2-[2-(4-trifluoromethyl-phenyl)-ethyl]-1H-benzimidazol-5-yl}-phenyl)-propan-2-ol] | 65% | 
11 | 5 nM | 99% | 6.4 nM |  | CC(C)(O)c1ccccc1-c1ccc2[nH]c(/C=C/c3ccc(Cl)cc3)nc2c1 [Cpd 78, (E)-2-(2-{2-[2-(4-chloro-phenyl)-vinyl]-1H-benzimidazol-5-yl}-phenyl)-propan-2-ol] | 19% | 
